{"source": "patent US20250085285A1", "about": "“Methods for Generating Biologically Specific Chromatin Condensates and Uses Thereof” (The Regents of the University of California, priority 2022, published 2025)", "molecular_target": "T1, HP1α-chromatin condensates (Homo sapiens, UniProt P45973)", "T1 construct": "6x-His (cleaved yes); made in house; host or cells: E. coli Rosetta BL21 (DE3)", "T1 sequence (P45973 whole entry)": "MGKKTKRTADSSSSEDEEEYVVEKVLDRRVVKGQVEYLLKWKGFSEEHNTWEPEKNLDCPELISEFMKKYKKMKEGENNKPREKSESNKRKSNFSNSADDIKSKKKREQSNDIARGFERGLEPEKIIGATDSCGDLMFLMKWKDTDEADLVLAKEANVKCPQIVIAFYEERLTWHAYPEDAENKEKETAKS", "test": "HP1α-chromatin condensate in vitro droplet assay / screening (fluorescence imaging)", "assay_type": "biochemical", "conditions": "for Effect of bioactive small molecules on HP1α-chromatin condensates: FIG. 7, Bioactive compound library (Selleck Chemicals), final concentration of 10 μM, H3K9me3 nucleosome arrays", "procedure": "HP1α was diluted to the desired 2× concentration. HP1αKCK was added to HP1α at a ratio of 1:500 HP1α: HP1αKCK for evident fluorescent signal. HP1α-chromatin droplets were formed at 40 nM nucleosome array concentration in 20 mM HEPES pH 7.5, 0.1 mM EDTA and 2× HP1α-HP1αKCK in 20 mM HEPES pH 7.2, 150 mM KCl 1 mM DTT. 10 μL of 80 nM nucleosome arrays (2×) was mixed with 10 μl 2× HP1α-HP1αKCK and incubated at room temperature for 20 minutes before transferring to a glass bottom 384 well plate for imaging.\n384 well glass bottom plates (Greiner Sensoplate 781892) were prepared for sample examination as follows: The wells were rinsed three times with 100 μl water, incubated with 100 μl of 2% Hellmanex for 30 mins-1 hour, rinsed with water three times again, incubated with 100 μl of 0.5M NaOH for 30 mins, rinsed with water three times, and then 70 μl of 20 mg/ml mPEG-silane dissolved in 95% EtOH was added to coat the wells. The plate was covered with foil and left overnight at 4° C.\nAfter the overnight, the wells were rinsed with 95% EtOH five times, followed by incubation with 100 mg/ml BSA for 2 hours. Then, the wells were rinsed three times with water and three times with 1× phasing buffer afterwards (20 mM HEPES pH 7.2, 75 mM KCl, 0.05 mM EDTA, 0.5 mM DTT). After, the condensates are added to each well.\nTo conduct droplet assays at scale, arrays assembled with 540 μg fluorescently labeled array DNA and 1.3 mg of fluorescently labeled HP1α were needed for one 384 well plate. 384 well plates were washed and coated in mPEG-silane in bulk using the Biotek EL406 washer dispenser. HP1α-array droplets were screened against a Bioactive compound library (Selleck Chemicals). These compounds were diluted in 1× phasing buffer (20 mM HEPES pH 7.2, 75 mM KCl, 0.05 mM EDTA, 0.5 mM DTT), and added to the wells for a final concentration of 10 μM in the reaction. The droplets and compounds were dispensed in the 384 wells using the Biomek-FX.\nAfter 3-4 hours of settling to the bottom of the plate, the condensates were imaged on the IN Cell Analyzer 6500HS equipped with a Nikon Plan Apo 40×/0.95NA objective and sCMOS camera. Five field of views per channel were taken per well. Image analysis was conducted using a custom pipeline written in Python using NumPy and SciPy SciKit libraries. Classical image segmentation and quantification techniques were implemented to identify droplets and characterize their geometry, fluorescent intensity, and consequently the effectiveness of the small molecules on the droplets."}
{"molecule": "CN(C)CCN1C(=O)c2cccc3cc(N)cc(c23)C1=O", "note": "[Amonifide]", "values": [{"measurement": "Effect of bioactive small molecules on HP1α-chromatin condensates", "result": "dissolve condensates"}]}
{"molecule": "C#Cc1cccc(Nc2ncnc3cc(OCCOC)c(OCCOC)cc23)c1", "note": "[Erlotinib]", "values": [{"measurement": "Effect of bioactive small molecules on HP1α-chromatin condensates", "result": "enhance condensate formation"}]}
{"molecule": "CS(=O)(=O)CCNCc1ccc(-c2ccc3ncnc(Nc4ccc(OCc5cccc(F)c5)c(Cl)c4)c3c2)o1", "note": "[Lapatinib ditosylate]", "values": [{"measurement": "Effect of bioactive small molecules on HP1α-chromatin condensates", "result": "mild or no effect"}]}
{"molecule": "CS(=O)(=O)c1ccc(C(=O)Nc2ccc(Cl)c(-c3ccccn3)c2)c(Cl)c1", "note": "[Vismodegib]", "values": [{"measurement": "Effect of bioactive small molecules on HP1α-chromatin condensates", "result": "enhance condensate formation"}]}
{"molecule": "CC(c1cc2ccccc2s1)N(O)C(N)=O", "note": "(stereo not drawn) [Zileuton]", "values": [{"measurement": "Effect of bioactive small molecules on HP1α-chromatin condensates", "result": "dissolve condensates"}]}
{"molecule": "HP1β: heterochromatin protein, biologically relevant interaction partner of HP1α-chromatin condensates", "values": [{"measurement": "Effect of biologically relevant interaction partners on HP1α-chromatin condensate formation", "setting": "FIG. 6, interaction partner added to HP1α-chromatin condensates", "result": "dissolves condensates, making them disappear or smaller"}]}
